Source: paper PMC11061835, “Elucidating the Mechanism of Metabolism of Cannabichromene by Human Cytochrome P450s” (Journal of Natural Products, 2024)
Values joined by “and” are separate entries in the source; they are usually repeats but may differ in a detail not shown here. Identical values can stand only once.

Tests used:
[1] = system: BV2 microglial cells, stimulated with lipopolysaccharide (LPS); test: Nitric oxide determination (Griess assay) in LPS-stimulated BV2 cells; type: cell-based, mouse; settings: 0.1, 1.0, 2.5, 5.0 μM, vs cells treated with LPS only
Experimental: BV2 cells were a gift from Dr. Bob McCusker, University of Illinois. They were cultured and maintained at 37 °C in a humidified atmosphere of 95% air and 5% CO2 in high-glucose Dulbecco’s modified Eagle’s (DMEM) medium (Cat No. 10-013-CV, Corning Life Sciences), supplemented with 5% heat-inactivated fetal bovine serum (FBS), streptomycin (100 μg/mL), and penicillin (100 units/mL). Stocks of all the minor cannabinoids were made in ethanol and stored at −80 °C and diluted as required before cell treatment. A final concentration of ethanol was maintained at 0.1% in the cell culture experiments.
First, cell viability of BV2 cells was assessed after treatment with cannabinoids, at various concentrations (0.1, 1.0, 2.5, 5.0 μM), utilizing Cayman’s MTT assay. […] Once viability was determined, we measured the production of pro-inflammatory markers such as nitric oxide (NO), interleukin 6 (IL-6), tumor necrosis factor alpha (TNFα), and arginase 1 (Arg1) after BV2 cells were treated with minor cannabinoids and then stimulated with lipopolysaccharide (LPS) to evoke an inflammatory response.
BV-2 cells were plated at a density of 50 000 cells/well in a 24-well plate at 37 °C under controlled conditions. Cells were pretreated with the minor cannabinoids at various concentrations (0.1, 1.0, 2.5, 5.0 μM) for 4 h and then stimulated with LPS for 24 h. The culture medium was removed and saved for the determination of nitric oxide production through Cayman’s Griess assay. IL-6, TNFα, and Arginase 1 production was also determined utilizing collected medium. For the Greiss assay, in a 96-well plate, 100 μL of culture medium was used, and 50 μL of both Greiss reagent-1 and Greiss reagent-2 was added and incubated for 10 min. The absorbance was measured at 540 nm using a plate reader (SpectraMax iD5). The quantification was done using a calibration curve that was generated using the sodium nitrite standard obtained from Cayman Chemicals.

[2] = target: CYP3A4 (Homo sapiens, UniProt P08684); test: Spectroscopic titration (Soret shift), CYP3A4; type: binding; set-up: His-tag; made in house; host or cells: E. coli DH-5α with pTGro7 plasmid; settings: CYP3A4, absence of CPR
CYP3A4, sequence (P08684 whole entry): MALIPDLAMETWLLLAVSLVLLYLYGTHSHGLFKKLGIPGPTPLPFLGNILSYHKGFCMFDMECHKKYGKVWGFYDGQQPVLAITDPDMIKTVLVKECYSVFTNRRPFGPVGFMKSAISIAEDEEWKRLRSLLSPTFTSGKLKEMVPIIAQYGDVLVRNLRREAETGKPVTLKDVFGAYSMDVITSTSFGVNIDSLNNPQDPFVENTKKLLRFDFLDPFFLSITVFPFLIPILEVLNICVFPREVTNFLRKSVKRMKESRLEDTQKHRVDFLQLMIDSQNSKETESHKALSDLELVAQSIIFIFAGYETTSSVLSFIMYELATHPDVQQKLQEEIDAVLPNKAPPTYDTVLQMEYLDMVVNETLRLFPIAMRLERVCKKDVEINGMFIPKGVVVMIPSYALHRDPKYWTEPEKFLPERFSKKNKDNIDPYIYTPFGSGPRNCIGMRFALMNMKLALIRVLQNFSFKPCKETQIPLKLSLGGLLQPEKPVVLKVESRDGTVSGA
Experimental: (§1) CBC binding to various CYPs was determined by analyzing the Soret shift from ∼417 to ∼390 nm. CBC (stock 10 mM) was dissolved in ethanol and titrated with different CYPs at room temperature. Buffer-exchanged CYP2J2, CYP2D6, CYP3A4, and CYP2C8 (concentrations of proteins were kept between 4 and 5 μM) were dissolved in 0.1 M phosphate buffer (pH = 7.4), and initial spectra were recorded from 200 to 800 nm with a prominent peak at 417 nm. The concentration of CBC was varied from 0 to 100 μM keeping the final concentration of substrate in EtOH not more than 1% in cuvette. 0–4 μL of stock CBC was added using a Hamilton syringe in both the sample and blank cuvettes. The mixture was incubated for 5 min at 37 °C, and absorbance spectra were recorded using a Cary Bio 300 UV–vis spectrophotometer (Agilent Technologies, Santa Clara, CA). To eliminate the background absorbance, we derived the final spectra by […].

[3] = target: T1, CYP2C9 with CPR (Homo sapiens, UniProt P11712); test: NADPH activity assay, CYP2C9 with CPR; type: biochemical; settings: CYP2C9, CBC 50 μM vs substrate-free
T1 construct: His-tag; made in house; host or cells: E. coli DH-5α with pTGro7 plasmid (CYP)
T1 sequence (P11712 whole entry): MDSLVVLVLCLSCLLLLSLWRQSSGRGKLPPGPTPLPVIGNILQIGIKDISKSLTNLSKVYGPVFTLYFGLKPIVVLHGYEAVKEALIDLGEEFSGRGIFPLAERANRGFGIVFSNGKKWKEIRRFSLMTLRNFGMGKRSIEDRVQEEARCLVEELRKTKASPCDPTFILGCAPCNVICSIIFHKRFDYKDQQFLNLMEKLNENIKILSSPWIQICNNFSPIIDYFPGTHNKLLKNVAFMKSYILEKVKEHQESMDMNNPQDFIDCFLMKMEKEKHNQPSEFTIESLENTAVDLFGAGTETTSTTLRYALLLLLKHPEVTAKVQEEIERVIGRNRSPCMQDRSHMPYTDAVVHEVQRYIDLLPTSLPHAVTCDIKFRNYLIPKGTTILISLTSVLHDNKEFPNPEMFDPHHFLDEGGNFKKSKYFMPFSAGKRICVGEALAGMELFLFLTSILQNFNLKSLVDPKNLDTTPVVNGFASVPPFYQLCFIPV
T1 sequence (P16435 whole entry partner): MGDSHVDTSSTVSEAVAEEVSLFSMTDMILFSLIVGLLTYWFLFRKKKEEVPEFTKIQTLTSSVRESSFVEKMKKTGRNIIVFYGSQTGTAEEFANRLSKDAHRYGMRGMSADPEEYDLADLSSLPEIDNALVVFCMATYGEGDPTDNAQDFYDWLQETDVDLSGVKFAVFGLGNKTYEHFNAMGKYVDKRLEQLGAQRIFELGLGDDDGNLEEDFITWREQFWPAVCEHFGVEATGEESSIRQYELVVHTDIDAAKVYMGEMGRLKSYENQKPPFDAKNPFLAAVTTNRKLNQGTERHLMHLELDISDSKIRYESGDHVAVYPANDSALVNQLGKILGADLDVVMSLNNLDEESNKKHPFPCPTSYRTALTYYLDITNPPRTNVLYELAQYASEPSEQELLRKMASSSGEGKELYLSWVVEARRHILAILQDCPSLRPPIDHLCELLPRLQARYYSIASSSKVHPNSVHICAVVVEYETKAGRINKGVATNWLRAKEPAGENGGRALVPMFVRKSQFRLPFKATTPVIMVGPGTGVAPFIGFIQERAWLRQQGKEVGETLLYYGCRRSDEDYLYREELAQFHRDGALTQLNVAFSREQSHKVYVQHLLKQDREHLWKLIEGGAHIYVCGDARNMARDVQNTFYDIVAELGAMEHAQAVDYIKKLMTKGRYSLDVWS
Experimental: CYP-mediated NADPH oxidation was measured using kinetics mode in a Cary 300 UV–vis spectrometer (Agilent Technologies). 0.2 μM (final concentration) of CYP was taken in 0.1 M potassium phosphate buffer (pH 7.4) and incubated with 0.6 μM (final concentration) of CPR for 5 min with a reaction volume of 400 μL. The reaction was initiated with 200 μM of NADPH, and the absorption change was monitored over 10 min at 340 nm. The rate of NADPH consumption (or NADPH to NADP^+ conversion) was calculated by taking the molar extinction coefficient as 6.22 mM^–1 cm^–1 at 340 nm. To estimate the change in NADPH oxidation in the presence of CBC, both CYP and CPR were further incubated using CBC (final concentration 50 μM) for 5 min followed by measuring the change in absorbance at 340 nm as discussed earlier.

[4] = target: T2, CYP2C8 (Homo sapiens, UniProt P10632); test: Spectroscopic titration (Soret shift), CYP2C8; type: binding; settings: CYP2C8, absence of CPR
T2 construct: His-tag; made in house; host or cells: E. coli DH-5α with pTGro7 plasmid
T2 sequence (P10632 1-490): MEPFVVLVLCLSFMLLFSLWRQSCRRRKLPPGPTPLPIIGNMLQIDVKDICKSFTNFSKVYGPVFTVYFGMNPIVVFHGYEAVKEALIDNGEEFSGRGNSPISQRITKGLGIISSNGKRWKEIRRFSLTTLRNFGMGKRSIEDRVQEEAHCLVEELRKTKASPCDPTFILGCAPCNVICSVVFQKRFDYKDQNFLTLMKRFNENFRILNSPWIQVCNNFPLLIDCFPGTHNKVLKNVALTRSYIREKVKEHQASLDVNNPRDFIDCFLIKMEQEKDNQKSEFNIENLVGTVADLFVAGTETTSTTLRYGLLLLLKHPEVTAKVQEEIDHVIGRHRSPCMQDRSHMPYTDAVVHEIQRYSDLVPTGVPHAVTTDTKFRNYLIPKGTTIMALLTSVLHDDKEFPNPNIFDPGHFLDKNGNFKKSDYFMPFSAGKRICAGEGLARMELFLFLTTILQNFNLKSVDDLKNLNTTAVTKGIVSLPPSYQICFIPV
Experimental: as §1

[5] = target: T3, CYP3A4 in the presence of CPR (Homo sapiens, UniProt P08684); test: Spectroscopic titration, CYP3A4–CPR complex; type: binding
T3 construct: His-tag; made in house; host or cells: E. coli DH-5α with pTGro7 plasmid (CYP)
T3 sequence (P08684 whole entry): as the sequence (P08684 whole entry) above
T3 sequence (P16435 whole entry partner): as the sequence (P16435 whole entry partner) above
Experimental: For CBC titration to CYP–CPR complex, initially CYPs were dissolved in 400 μL of 0.1 M phosphate buffer (pH = 7.4) keeping the concentration between […]. Following this 50 μL of CPR (50 μM stock) was added to both cuvettes, and the final concentration of both of the proteins was 5–6 μM. Both proteins were initially mixed and incubated for 5 min followed by titration with CBC in the same process as mentioned above. The substrate-bound spectra were then subtracted from substrate-free spectra, and the extent of binding was analyzed using Origin Pro 2020.

Structure (SMILES)	effect on NO release/production [1]	ΔAmax (spin state change due to heme perturbation) [2]	Kd ([2]; read-out: Kd(app))	percentage increase of NADPH consumption in the presence of CBC [3]	ΔAmax (spin state change due to heme perturbation) [4]	Kd ([4]; read-out: Kd(app))	ΔAmax (spin state change due to heme perturbation) [5]	Kd ([5]; read-out: Kd(app))
CCCCCc1cc(O)c2c(c1)OC(C)(CC/C=C(\C)CO)C=C2 (centres unmarked) [8′-hydroxy-CBC]	elevated levels							
CCCCCc1cc(O)c2c(c1)OC(C)(CCC=C(C)C)C=C2 (centres unmarked) [CBC, Cannabichromene]		0.11 ± 0.00 and ~0.11	9.57 µM and ~9.5 µM	~90%	0.15 ± 0.00 and ~0.15	38.1 µM and ~38 µM	0.03 ± 0.00 and 0.03–0.04	1.66 µM and ~1.6 µM and < 10 µM
